Laboratory results: PMC8364686, “Safety, tolerability, pharmacokinetics and pharmacodynamics of single oral doses of BI 187004, an inhibitor of 11beta-hydroxysteroid dehydrogenase-1, in healthy male volunteers with overweight or obesity” (Clinical Diabetes and Endocrinology, 2021)

Assay: Plasma pharmacokinetics of BI 187004 after single oral doses (LC–MS/MS)
Conditions: male, human, plasma, po; for concentration at 36 h: planned time 36 h; for concentration at 48 h: planned time 48 h; for concentration at 72 h: planned time 72 h; for concentration at 96 h: planned time 96 h; for concentration at 0.5 h: planned time 0.5 h; for concentration at 1 h: planned time 1 h; for concentration at 1.5 h: planned time 1.5 h; for concentration at 2 h: planned time 2 h; for concentration at 2.5 h: planned time 2.5 h; for concentration at 3 h: planned time 3 h; for concentration at 4 h: planned time 4 h; for concentration at 5 h: planned time 5 h; for concentration at 6 h: planned time 6 h; for concentration at 8 h: planned time 8 h; for concentration at 10 h: planned time 10 h; for concentration at 12 h: planned time 12 h
[1] = 160 mg, BI 187004 plasma concentrations, 160 mg single oral, Max
[2] = 160 mg, BI 187004 plasma concentrations, 160 mg single oral, Mean
[3] = 160 mg, BI 187004 plasma concentrations, 160 mg single oral, Median
[4] = 160 mg, BI 187004 plasma concentrations, 160 mg single oral, Min
[5] = 160 mg, BI 187004 plasma concentrations, 160 mg single oral, gMean
[6] = 240 mg, BI 187004 plasma concentrations, Max, 240 mg single oral
[7] = 240 mg, BI 187004 plasma concentrations, Mean, 240 mg single oral
[8] = 240 mg, BI 187004 plasma concentrations, Median, 240 mg single oral
[9] = 240 mg, BI 187004 plasma concentrations, Min, 240 mg single oral
[10] = 240 mg, BI 187004 plasma concentrations, gMean, 240 mg single oral
[11] = 360 mg, BI 187004 plasma concentrations, 360 mg single oral, individual subjects
[12] = 360 mg, BI 187004 plasma concentrations, Max, 360 mg single oral
[13] = 360 mg, BI 187004 plasma concentrations, Mean, 360 mg single oral
[14] = 360 mg, BI 187004 plasma concentrations, Median, 360 mg single oral
[15] = 360 mg, BI 187004 plasma concentrations, Min, 360 mg single oral
[16] = 360 mg, BI 187004 plasma concentrations, gMean, 360 mg single oral

Description: This was a randomized, double-blind, placebo-controlled, single rising dose study conducted at a single center in Germany. […] Follow-up on an ambulatory basis was performed between 11 and 15 days after study drug administration. […] At the time of use the oral solution for dosing was prepared using the PFOS and a co-supplied aqueous solvent containing HP-beta-cyclodextrin 100 mg/mL. The lowest dose level solutions were prepared by further dilution of the lower concentration solution with additional solvent.
For each accepted run, the acceptance criteria for the calibration standards and quality controls were met.

## N#Cc1ccc2c(c1)[C@H]1CCCN(C(=O)c3ccc4[nH]cnc4c3)[C@H]1C2 [BI 187004]
[1]
  concentration at 36 h: 1.39 µM
  concentration at 48 h: 1 µM
  concentration at 72 h: 0.312 µM
  concentration at 96 h: 0.0468 µM
[2]
  concentration at 36 h: 0.716 µM
  concentration at 48 h: 0.457 µM
  concentration at 72 h: 0.139 µM
  concentration at 96 h: 0.0338 µM
[3]
  concentration at 36 h: 0.604 µM
  concentration at 48 h: 0.352 µM
  concentration at 72 h: 0.108 µM
  concentration at 96 h: 0.0317 µM
[4]
  concentration at 36 h: 0.476 µM
  concentration at 48 h: 0.329 µM
  concentration at 72 h: 0.0859 µM
  concentration at 96 h: 0.028 µM
[5]
  concentration at 36 h: 0.669 µM
  concentration at 48 h: 0.414 µM
  concentration at 72 h: 0.125 µM
  concentration at 96 h: 0.0332 µM
160 mg, BI 187004 plasma concentrations, 160 mg single oral, individual subjects
  concentration at 96 h: 0.0302 µM
160 mg, C24 gMean (%gCV), 160 mg single oral dose
  concentration at 24 h: 1.63 µM
240 mg
  AUC(0-inf): 109 µM·h
  AUC(0-t): 71.7 µM·h
  Cmax: 7.12 µM
  Tmax: 1 h
  Vd/F: 124 L
  half-life: 13.4 h
240 mg, BI 187004 plasma concentrations, 240 mg single oral, planned time 24 h, individual subjects
  concentration at 24 h: 2.18 µM
[6]
  concentration at 0.5 h: 8.44 µM
  concentration at 1 h: 10.7 µM
  concentration at 1.5 h: 9.03 µM
  concentration at 2 h: 9.22 µM
  concentration at 2.5 h: 8.51 µM
  concentration at 3 h: 6.98 µM
  concentration at 4 h: 8.42 µM
  concentration at 5 h: 6.78 µM
  concentration at 6 h: 6.37 µM
  concentration at 8 h: 5.38 µM
  concentration at 10 h: 5.8 µM
  concentration at 12 h: 3.9 µM
  concentration at 36 h: 1.34 µM
  concentration at 48 h: 0.794 µM
  concentration at 72 h: 0.323 µM
  concentration at 96 h: 0.181 µM
240 mg, BI 187004 plasma concentrations, Max, 240 mg single oral, planned time 24 h
  concentration at 24 h: 2.63 µM
[7]
  concentration at 0.5 h: 5.21 µM
  concentration at 1 h: 7.49 µM
  concentration at 1.5 h: 6.42 µM
  concentration at 2 h: 6.26 µM
  concentration at 2.5 h: 6.3 µM
  concentration at 3 h: 5.15 µM
  concentration at 4 h: 5.51 µM
  concentration at 5 h: 4.78 µM
  concentration at 6 h: 4.33 µM
  concentration at 8 h: 3.85 µM
  concentration at 10 h: 3.45 µM
  concentration at 12 h: 2.59 µM
  concentration at 36 h: 0.926 µM
  concentration at 48 h: 0.508 µM
  concentration at 72 h: 0.157 µM
  concentration at 96 h: 0.0639 µM
240 mg, BI 187004 plasma concentrations, Mean, 240 mg single oral, planned time 24 h
  concentration at 24 h: 2.17 µM
[8]
  concentration at 0.5 h: 5.53 µM
  concentration at 1 h: 8.43 µM
  concentration at 1.5 h: 6.89 µM
  concentration at 2 h: 6.78 µM
  concentration at 2.5 h: 7.27 µM
  concentration at 3 h: 5.84 µM
  concentration at 4 h: 5.68 µM
  concentration at 5 h: 5.43 µM
  concentration at 6 h: 5.27 µM
  concentration at 8 h: 4.37 µM
  concentration at 10 h: 3.7 µM
  concentration at 12 h: 2.89 µM
  concentration at 36 h: 0.887 µM
  concentration at 48 h: 0.461 µM
  concentration at 72 h: 0.0989 µM
  concentration at 96 h: 0.0364 µM
240 mg, BI 187004 plasma concentrations, Median, 240 mg single oral, planned time 24 h
  concentration at 24 h: 2.32 µM
[9]
  concentration at 0.5 h: 0.13 µM
  concentration at 1 h: 0.44 µM
  concentration at 1.5 h: 0.811 µM
  concentration at 2 h: 0.543 µM
  concentration at 2.5 h: 0.605 µM
  concentration at 3 h: 0.388 µM
  concentration at 4 h: 0.575 µM
  concentration at 5 h: 0.494 µM
  concentration at 6 h: 0.452 µM
  concentration at 8 h: 0.181 µM
  concentration at 10 h: 0.313 µM
  concentration at 12 h: 0.258 µM
  concentration at 36 h: 0.567 µM
  concentration at 48 h: 0.255 µM
  concentration at 72 h: 0.0541 µM
  concentration at 96 h: 0.0158 µM
240 mg, BI 187004 plasma concentrations, Min, 240 mg single oral, planned time 24 h
  concentration at 24 h: 1.53 µM
[10]
  concentration at 0.5 h: 3.18 µM
  concentration at 1 h: 5.34 µM
  concentration at 1.5 h: 5.15 µM
  concentration at 2 h: 4.71 µM
  concentration at 2.5 h: 4.84 µM
  concentration at 3 h: 3.84 µM
  concentration at 4 h: 4.28 µM
  concentration at 5 h: 3.7 µM
  concentration at 6 h: 3.28 µM
  concentration at 8 h: 2.65 µM
  concentration at 10 h: 2.6 µM
  concentration at 12 h: 1.99 µM
  concentration at 36 h: 0.885 µM
  concentration at 48 h: 0.465 µM
  concentration at 72 h: 0.118 µM
  concentration at 96 h: 0.0419 µM
240 mg, BI 187004 plasma concentrations, gMean, 240 mg single oral, planned time 24 h
  concentration at 24 h: 2.13 µM
240 mg, C24 gMean (%gCV), 240 mg single oral dose
  concentration at 24 h: 2.13 µM
360 mg
  AUC(0-inf): 191 µM·h
  AUC(0-t): 135 µM·h
  Cmax: 13.4 µM
  Tmax: 1 h
  Vd/F: 110 L
  half-life: 13.9 h
[11]
  concentration at 6 h: 10.2 µM
  concentration at 8 h: 9.51 µM
  concentration at 12 h: 6.08 µM
[12]
  concentration at 0.5 h: 16.8 µM
  concentration at 1 h: 18.4 µM
  concentration at 1.5 h: 15.9 µM
  concentration at 2 h: 14.5 µM
  concentration at 2.5 h: 14.6 µM
  concentration at 3 h: 12.9 µM
  concentration at 4 h: 12.2 µM
  concentration at 5 h: 9.63 µM
  concentration at 6 h: 10.2 µM
  concentration at 8 h: 9.51 µM
  concentration at 10 h: 7.68 µM
  concentration at 12 h: 6.08 µM
  concentration at 36 h: 1.99 µM
  concentration at 48 h: 1.47 µM
  concentration at 72 h: 0.516 µM
  concentration at 96 h: 0.174 µM
360 mg, BI 187004 plasma concentrations, Max, 360 mg single oral, planned time 24 h
  concentration at 24 h: 4.74 µM
[13]
  concentration at 0.5 h: 11.5 µM
  concentration at 1 h: 13.1 µM
  concentration at 1.5 h: 11.5 µM
  concentration at 2 h: 10.9 µM
  concentration at 2.5 h: 10.3 µM
  concentration at 3 h: 9.36 µM
  concentration at 4 h: 9.59 µM
  concentration at 5 h: 7.55 µM
  concentration at 6 h: 7.25 µM
  concentration at 8 h: 6.85 µM
  concentration at 10 h: 5.5 µM
  concentration at 12 h: 4.83 µM
  concentration at 36 h: 1.48 µM
  concentration at 48 h: 0.898 µM
  concentration at 72 h: 0.301 µM
  concentration at 96 h: 0.095 µM
360 mg, BI 187004 plasma concentrations, Mean, 360 mg single oral, planned time 24 h
  concentration at 24 h: 2.84 µM
[14]
  concentration at 0.5 h: 11.6 µM
  concentration at 1 h: 13.3 µM
  concentration at 1.5 h: 11.6 µM
  concentration at 2 h: 10.8 µM
  concentration at 2.5 h: 10.2 µM
  concentration at 3 h: 9.34 µM
  concentration at 4 h: 10.3 µM
  concentration at 5 h: 7.87 µM
  concentration at 6 h: 6.45 µM
  concentration at 8 h: 6.27 µM
  concentration at 10 h: 5.62 µM
  concentration at 12 h: 4.63 µM
  concentration at 36 h: 1.49 µM
  concentration at 48 h: 0.869 µM
  concentration at 72 h: 0.281 µM
  concentration at 96 h: 0.0816 µM
360 mg, BI 187004 plasma concentrations, Median, 360 mg single oral, planned time 24 h
  concentration at 24 h: 2.66 µM
[15]
  concentration at 0.5 h: 5.8 µM
  concentration at 1 h: 7.17 µM
  concentration at 1.5 h: 6.45 µM
  concentration at 2 h: 6.66 µM
  concentration at 2.5 h: 5.66 µM
  concentration at 3 h: 6.3 µM
  concentration at 4 h: 5.67 µM
  concentration at 5 h: 4.81 µM
  concentration at 6 h: 5.79 µM
  concentration at 8 h: 5.06 µM
  concentration at 10 h: 3.36 µM
  concentration at 12 h: 3.78 µM
  concentration at 36 h: 0.83 µM
  concentration at 48 h: 0.375 µM
  concentration at 72 h: 0.0691 µM
  concentration at 96 h: 0.0168 µM
360 mg, BI 187004 plasma concentrations, Min, 360 mg single oral, planned time 24 h
  concentration at 24 h: 1.79 µM
[16]
  concentration at 0.5 h: 10.8 µM
  concentration at 1 h: 12.6 µM
  concentration at 1.5 h: 11.1 µM
  concentration at 2 h: 10.6 µM
  concentration at 2.5 h: 9.71 µM
  concentration at 3 h: 9.14 µM
  concentration at 4 h: 9.32 µM
  concentration at 5 h: 7.36 µM
  concentration at 6 h: 7.11 µM
  concentration at 8 h: 6.71 µM
  concentration at 10 h: 5.3 µM
  concentration at 12 h: 4.78 µM
  concentration at 36 h: 1.41 µM
  concentration at 48 h: 0.814 µM
  concentration at 72 h: 0.246 µM
  concentration at 96 h: 0.0723 µM
360 mg, BI 187004 plasma concentrations, gMean, 360 mg single oral, planned time 24 h
  concentration at 24 h: 2.69 µM
360 mg, C24 gMean (%gCV), 360 mg single oral dose
  concentration at 24 h: 2.69 µM
